Source: PubChem BioAssay AID1985 (Southern Research Specialized Biocontainment Screening …, 2009)

tested on: S. Typhi PhoP-promoter GFP reporter, fluorescence, 4 h; assay: modified counter assay using GFP fluorescence, PhoP regulon inhibitor project, dose response (AID 1985)

First: c1ccc(-c2nc3ccccc3[nH]2)cc1
Second: Nc1c2ccccc2nc2ccccc12
The IC50 of the first is 1.6-fold higher: 75 µM for the first, 48 µM for the second.

Going from Cc1cccc2c1Sc1ccc(Cl)cc1CC2N1CCNCC1 (stereo not given) to OCCN1CCN(C2Cc3cc(Cl)ccc3Sc3ccc(Cl)cc32)CC1 (stereo not given) (tested in a mixture with another compound), the IC50 rises from 32.7 µM to 74.8 µM (2.3-fold). The first is the more potent here.

Compared with CO[C@@]1(NC(=O)Cc2cccs2)C(=O)N2C(C(=O)O)=C(COC(N)=O)CS[C@@H]21, O=C(O)c1cccc(N2C(=O)CSC2=S)c1 is 1.5-fold higher in IC50: 40.5 µM for the first, 62.1 µM for the second. The first is the more potent here.

Compared with O=C(C[n+]1cc(Br)cc2ccccc21)c1ccc(Cl)cc1, Clc1ccc(C[n+]2cc(-c3ccc(Cl)cc3)n3c2CCC3)cc1 is 1.7-fold higher in IC50: 57.8 µM for the first, 101 µM for the second. The first is the more potent here.

Cc1[nH]n(-c2ccccc2)c(=O)c1C(c1cccc([N+](=O)[O-])c1O)c1c(C)[nH]n(-c2ccccc2)c1=O and O=C(N/N=C/c1cc([N+](=O)[O-])ccc1O)C(O)(c1ccccc1)c1ccccc1 are within 1.5-fold of each other in IC50: 48.5 µM for the first, 60.4 µM for the second.

Going from CCC(C)N1CCC2(CC1)N=c1c(c3c4c5c(C)c(O)c3c(O)c1=NC(=O)C(C)=CC=C[C@H](C)[C@H](O)[C@@H](C)[C@@H](O)[C@@H](C)[C@H](OC(C)=O)[C@H](C)[C@@H](OC)C=CO[C@@](C)(O5)C4=O)N2 (stereo not given in full) to COc1cc(/C=C2/C(=O)NN(c3ccc(C)c(Cl)c3)C2=O)cc([N+](=O)[O-])c1O, the IC50 rises from 9.09 µM to 46.6 µM (5.1-fold).

First: COc1cccc(/C=N\NC(=O)Cn2nnc3ccccc32)c1O
Second: O=C(CSc1nc2ccccc2s1)N/N=C/c1cc([N+](=O)[O-])ccc1O
The IC50 of the first is 2.2-fold higher: 97.7 µM for the first, 44 µM for the second. The second is the more potent here.

First: N#C/C(N=Nc1ccccc1O)=N\Nc1ccccc1O
Second: C/C(=N\NC(=O)c1ccccc1O)c1cccs1
The IC50 of the first is 9.4-fold lower: 9.47 µM for the first, 89.3 µM for the second. The first is the more potent here.

Compared with CC12CN3CC(C)(CN(C1)C3c1ccc(Br)cc1O)C2 (stereo not given), OC(CN1CCCCC1)Cn1c2ccccc2c2cc(Br)ccc21 (stereo not given) is 1.6-fold lower in IC50: 133 µM for the first, 81.9 µM for the second.

Going from CCCCn1c(NS(=O)(=O)c2ccccc2)c(S(=O)(=O)c2ccc(C)cc2)c2nc3ccccc3nc21 to CCN1CCN(C2=C(NS(=O)(=O)c3ccc(Br)cc3)C(=O)c3ccccc3C2=O)CC1, the IC50 falls from 114 µM to 47.4 µM (2.4-fold). The second is the more potent here.

Compared with Oc1c(C(Nc2ccccn2)c2cccnc2)cc(Cl)c2cccnc12 (stereo not given), N/C(=N\OS(=O)(=O)c1ccccc1)c1cccnc1 is 3.4-fold lower in IC50: 33.9 µM for the first, 9.86 µM for the second. The second is the more potent here.

Compared with c1ccc2c(c1)CSc1sccc1C2=C1CCNCC1, O=C(Nc1nc(-c2ccccn2)cs1)c1ccc(Br)s1 is 5.3-fold lower in IC50: 106 µM for the first, 20.1 µM for the second.

Compared with CCn1cc(C(=O)NCc2ccc3c(c2)OCO3)c(=O)c2cc(F)c(N3CCN(C(=O)c4ccco4)CC3)cc21, CCn1cc(C(=O)O)c(=O)c2cc(F)c(N3CCN(C(=S)NC(=O)c4cccc(F)c4)CC3)cc21 is 3.9-fold lower in IC50: 107 µM for the first, 27.2 µM for the second.

First: CCNC(=O)Oc1ccc[nH]c1=O
Second: CC1CCc2cc(F)cc3c(=O)c(C(=O)O)cn1c23 (stereo not given)
The IC50 of the first is 10-fold higher: 99.4 µM for the first, 9.57 µM for the second.

Going from CCCCCCCCCCn1c2c(c(=N)c3c1CCC3)CCC2 to CCCCCCCCCCCCCCCC[N+](C)(C)CC, the IC50 falls from 144 µM to 22.4 µM (6.4-fold). The second is the more potent here.

Compared with O=C(NNc1nc2ccc(F)cc2s1)c1cccc(F)c1, O=C(NC(=S)NNC(=O)c1cnccn1)c1ccc(F)cc1 is 5.9-fold lower in IC50: 148 µM for the first, 25.1 µM for the second.

O=c1oc2ccccc2nc1/C=C(\O)c1ccccc1 and c1ccc(Nc2nc(NCC3CCCO3)c3ccccc3n2)cc1 (stereo not given) are within 1.5-fold of each other in IC50: 23.9 µM for the first, 16.8 µM for the second.

Going from C#CCOCCOCCOCCNc1nc(N2CCN(C(=O)CCCCCCCCCCNC(=O)[C@H](CCCCN)n3cc(C)nn3)CC2)nc(N2CCN(C(=O)CCCCCCCCCCNC(=O)[C@@H]([C@H](C)CC)n3cc(CCCCCN)nn3)CC2)n1 to CCOC(=O)N1CCN(C(=O)c2cn(CC)c3cc(N4CCN(C)CC4)c(F)cc3c2=O)CC1, the IC50 falls from 79 µM to 7.67 µM (10-fold). The second is the more potent here.

Compared with CCCCC(CC)CN=C(N)NC(N)=NCCCCCCN=C(N)NC(N)=NCC(CC)CCCC (stereo not given), CCCCCc1ccc(OCCCC[n+]2ccccc2)c(CCCCC)c1 is 29-fold higher in IC50: 2.61 µM for the first, 74.5 µM for the second. The first is the more potent here.

Going from Oc1c(Cl)cc(CN2CCCCC2)c2cccnc12 to OC1CCCN(Cc2ccc3ccc4cccc5ccc2c3c45)C1 (stereo not given), the IC50 rises from 15 µM to 118 µM (7.9-fold). The first is the more potent here.

O=c1[nH]c2ccccc2n2c(=S)[nH]nc12 and CSc1cccc(NC(=O)/C=C/c2ccccc2)c1 are within 1.5-fold of each other in IC50: 68.5 µM for the first, 84.9 µM for the second.

O=c1c(O)cccc2cc(O)c(O)c(O)c12 and O=[N+]([O-])c1ccc(/C=N/NC(=S)Nc2ccc(Cl)cc2Cl)s1 are within 1.5-fold of each other in IC50: 17.5 µM for the first, 25 µM for the second.

CCn1nnc(NC(=O)c2ccc([N+](=O)[O-])o2)n1 and CCCCCOc1ccc(CSC(=N)N)cc1[N+](=O)[O-] are within 1.5-fold of each other in IC50: 28.4 µM for the first, 20.9 µM for the second.

CN1CC=C(/C=C/c2ccc(-c3ccccc3)cc2)CC1 and Cc1ccc(-n2c(-c3ccc(Br)cc3)c[n+]3c2CCc2ccc4cccnc4c2-3)cc1 are within 1.5-fold of each other in IC50: 95.2 µM for the first, 97.5 µM for the second.

First: C/C(=N\N=C(N)N)c1ccc(Cl)c(Cl)c1
Second: Nc1cc(Cl)c2nonc2c1[N+](=O)[O-]
The IC50 of the first is 2.6-fold higher: 51.5 µM for the first, 19.6 µM for the second. The second is the more potent here.

Oc1ccc(C[C@@H]2CNCCN2CCCCC2CCCCC2)cc1 and OCCN1CCN(C2CCC(c3ccc(F)cc3)c3ccc(F)cc32)CC1 (stereo not given) are within 1.5-fold of each other in IC50: 74.3 µM for the first, 67.7 µM for the second.

Going from CC(C)CCC(CCNCc1ccccn1)c1ccc(Cl)cc1 (stereo not given) to S=C(Nc1cc(Cl)cc(Cl)c1)NC1CCN(Cc2ccccc2)CC1, the IC50 falls from 79.4 µM to 36.7 µM (2.2-fold). The second is the more potent here.

Work on CCCCOc1ccc(NC2=NC3(CCCC3)N=C(N)N2)cc1 yielded an IC50 of 72.9 µM.
